pIC50: −log10 of the molar value.
These compounds were tested against T1, NLRP3 inflammasome (Homo sapiens, UniProt Q96P20) (assay: THP-1 Cell-Based NLRP3 Activation Assay). Settings: THP-1 cells, PMA, 100 ng/mL LPS 3 hrs, 30 min pre-incubation with test compound, 10 μM nigericin 1 hr.
T1 construct: endogenous in cells; host or cells: THP-1 cells (PMA-differentiated, LPS-primed, nigericin-stimulated)
Method: THP-1 cells are cultured in complete media (CM) until they reach logarithmic growth and achieve a viability >90%. CM is composed of RPMI-1640 (+Glutamax)/10% fetal bovine serum/55 μM β-mercaptoethanol/pen/strep. Cells are spun down and resuspended to 1,000,000 cells/mL in CM containing either 20 nM or 500 nM PMA. 150,000 cells […] are then added to each well of a 96-well TC plate and incubated for either 24 hr or 3 hr, respectively, in a standard cell culture incubator (37° C.; 5% CO2). After this incubation, the plate is tilted and media carefully removed. 200 μL of CM containing 100 ng/mL LPS is then added to the wells and the cells incubated an additional 3 hrs. The media is again removed and replaced with Opti-Mem medium containing pre-determined dilutions of test compounds in replicate wells. After a 30 min pre-incubation with test compound, 10 μM nigericin (final concentration) in Opti-Mem medium with the corresponding concentration of compound is added to the wells for an additional 1 hr. Positive control wells contain 10 μM nigericin in Opti-Mem in the absence of test compound, while negative control wells contain Opti-Mem only. […] Once supernatants are removed, the relative viability of adherent cells in the 96-well TC plate are determined using a CellTiter-Glo® luminescent cell viability assay (Promega).

T1 sequence (Q96P20 whole entry): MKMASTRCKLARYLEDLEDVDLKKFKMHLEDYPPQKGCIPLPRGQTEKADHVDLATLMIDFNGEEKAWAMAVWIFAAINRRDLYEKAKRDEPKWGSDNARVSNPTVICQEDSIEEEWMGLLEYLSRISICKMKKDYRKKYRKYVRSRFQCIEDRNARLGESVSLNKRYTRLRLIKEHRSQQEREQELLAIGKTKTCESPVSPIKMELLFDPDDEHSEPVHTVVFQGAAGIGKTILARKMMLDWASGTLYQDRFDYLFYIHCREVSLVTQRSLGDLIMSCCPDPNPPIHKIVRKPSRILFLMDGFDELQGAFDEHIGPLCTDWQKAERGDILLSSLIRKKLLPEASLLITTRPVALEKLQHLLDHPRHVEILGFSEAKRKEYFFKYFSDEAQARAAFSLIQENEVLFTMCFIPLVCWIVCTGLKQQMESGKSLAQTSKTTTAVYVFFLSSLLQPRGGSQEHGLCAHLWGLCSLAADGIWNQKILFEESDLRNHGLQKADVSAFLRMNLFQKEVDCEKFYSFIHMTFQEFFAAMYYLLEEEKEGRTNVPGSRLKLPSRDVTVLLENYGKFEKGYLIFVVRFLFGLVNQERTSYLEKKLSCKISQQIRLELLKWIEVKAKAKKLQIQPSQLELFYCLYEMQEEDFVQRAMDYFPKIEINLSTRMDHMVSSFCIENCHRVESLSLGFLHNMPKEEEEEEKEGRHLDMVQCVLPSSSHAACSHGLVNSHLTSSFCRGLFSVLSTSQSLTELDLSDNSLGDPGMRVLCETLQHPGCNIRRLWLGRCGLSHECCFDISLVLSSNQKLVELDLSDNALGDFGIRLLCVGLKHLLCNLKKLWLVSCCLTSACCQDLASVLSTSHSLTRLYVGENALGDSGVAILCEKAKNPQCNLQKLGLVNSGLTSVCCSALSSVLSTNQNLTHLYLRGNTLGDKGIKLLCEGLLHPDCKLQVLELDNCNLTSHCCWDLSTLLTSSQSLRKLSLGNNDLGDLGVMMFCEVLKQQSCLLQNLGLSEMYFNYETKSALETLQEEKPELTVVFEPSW

`CCOc1cc(C(=O)N(C)Cc2c(C(C)O)ncc3cn[nH]c23)ccc1-c1cccc(F)c1` (centres unmarked) [Compound 135] and `CCOc1cc(C(=O)N(C)Cc2c(CO)ncc3cn[nH]c23)ccc1-c1cccc(F)c1` [Compound 039] cannot be ordered by pIC50: over 6.00 for the first, over 6.00 for the second.

`Cc1ncc([C@@H](C)N(C)C(=O)c2cc(F)c(-c3cccc(F)c3)c(OC3CC3)c2)c2[nH]ncc12` [Compound 034] and `Cc1ncc(CN(C)C(=O)c2cc(F)c(-c3cccc(Cl)c3)c(OC3CC3)c2)c2[nH]ncc12` [Compound 048] cannot be ordered by pIC50: over 5.00 for the first, over 6.00 for the second.

`CC(O)c1ncc(CN(C)C(=O)c2cc(F)c(-c3cccc(C#N)c3)c(OC3CC3)c2)c2[nH]ncc12` (centres unmarked) [Compound 091] and `CC(O)c1ncc(CN(C)C(=O)c2cc(F)c(-c3cccc(Cl)c3)c(OC3CC3)c2)c2[nH]ncc12` (centres unmarked) [Compound 115] cannot be ordered by pIC50: over 6.00 for the first, over 6.00 for the second.

`CCOc1cc(C(=O)N(C)Cc2cnc(C(C)O)c3cn[nH]c23)cc(F)c1-c1cc(F)cs1` (centres unmarked) [Compound 081] and `CCOc1cc(C(=O)N(C)Cc2cnc(C)c3cn[nH]c23)ccc1-c1cc(F)cs1` [Compound 140] cannot be ordered by pIC50: over 6.00 for the first, over 5.00 for the second.

`CCOc1cc(C(=O)N(C)Cc2cnc(CO)c3cn[nH]c23)cc(F)c1-c1cc(F)cc(F)c1` [Compound 131] and `CCOc1cc(C(=O)N(C)Cc2cc(O)cc3cn[nH]c23)cc(F)c1-c1cccc(F)c1` [Compound 098] cannot be ordered by pIC50: over 6.00 for the first, over 6.00 for the second.

`CCOc1cc(C(=O)N(C)Cc2cnc(C(C)O)c3cn[nH]c23)ccc1-c1cccc(C#N)c1` (centres unmarked) [Compound 029] and `CCOc1cc(C(=O)N(CC)Cc2cnc(C(C)O)c3cn[nH]c23)ccc1-c1cccc(Cl)c1` (centres unmarked) [Compound 176] cannot be ordered by pIC50: over 6.00 for the first, over 6.00 for the second.

`CCOc1cc(C(=O)N(C)Cc2cc(O)cc3cn[nH]c23)cc(F)c1-c1ccccc1` [Compound 112] and `CCOc1cc(C(=O)N(C)Cc2cc(CO)cc3cn[nH]c23)ccc1-c1cccc(F)c1` [Compound 069] cannot be ordered by pIC50: over 6.00 for the first, over 6.00 for the second.

`CCOc1nc(C(=O)N(C)Cc2cc(O)cc3cn[nH]c23)ccc1-c1cccc(F)c1` [Compound 128] and `CCOc1cc(C(=O)N(C)Cc2cc(O)c(C)c3cn[nH]c23)ccc1-c1cccc(F)c1` [Compound 015] cannot be ordered by pIC50: over 5.00 for the first, over 6.00 for the second.

`CCOc1cc(C(=O)N(C)Cc2c(C)nc(C)c3cn[nH]c23)ccc1-c1cccc(F)c1` [Compound 053] and `CCOc1cc(C(=O)N(C)[C@H](C)c2cnc(CO)c3cn[nH]c23)ccc1-c1cccc(F)c1` [Compound 159] cannot be ordered by pIC50: over 6.00 for the first, over 6.00 for the second.

`CCOc1cc(C(=O)N(C)[C@H](C)c2cc(F)cc3cn[nH]c23)ccc1-c1cccc(F)c1` [Compound 043] and `CCN(Cc1cnc(C(C)O)c2cn[nH]c12)C(=O)c1ccc(-c2cccc(F)c2)c(OC2CC2)c1` (centres unmarked) [Compound 179] cannot be ordered by pIC50: over 4.30 for the first, over 6.00 for the second.

`CN(Cc1cnc(CO)c2cn[nH]c12)C(=O)c1cc(Cl)c(-c2cccc(Cl)c2)c(OC2CC2)c1` [Compound 161] and `CCOc1cc(C(=O)N(C)Cc2cnc(C)c3cn[nH]c23)cc(CF)c1-c1cccc(F)c1` [Compound 125] cannot be ordered by pIC50: over 6.00 for the first, over 5.00 for the second.

`CCOc1cc(C(=O)N(C)Cc2cccc3[nH]ncc23)ccc1-c1cccc(C#N)c1` [Compound 126] showed a pIC50 of over 6.00.

From patent US20240116933A1, “INDAZOLE AND PYRAZOLOPYRIDINE COMPOUNDS AS INHIBITORS OF NLRP3 INFLAMMASOME” (BioAge Labs, Inc., priority 2022, published 2024)
